The nature of assay [1]: Inhibition of crude human PBMC extract prodrug hydrolase using [14C]GS-7340 substrate.
The nature of assay [2]: Inhibition of purified prodrug hydrolase using [14C]GS-7340 substrate. Also noted: species or system Homo sapiens.
Another assay has as its target T1, Liver carboxylesterase (Sus scrofa, UniProt Q29550).
T1 sequence (Q29550 whole entry): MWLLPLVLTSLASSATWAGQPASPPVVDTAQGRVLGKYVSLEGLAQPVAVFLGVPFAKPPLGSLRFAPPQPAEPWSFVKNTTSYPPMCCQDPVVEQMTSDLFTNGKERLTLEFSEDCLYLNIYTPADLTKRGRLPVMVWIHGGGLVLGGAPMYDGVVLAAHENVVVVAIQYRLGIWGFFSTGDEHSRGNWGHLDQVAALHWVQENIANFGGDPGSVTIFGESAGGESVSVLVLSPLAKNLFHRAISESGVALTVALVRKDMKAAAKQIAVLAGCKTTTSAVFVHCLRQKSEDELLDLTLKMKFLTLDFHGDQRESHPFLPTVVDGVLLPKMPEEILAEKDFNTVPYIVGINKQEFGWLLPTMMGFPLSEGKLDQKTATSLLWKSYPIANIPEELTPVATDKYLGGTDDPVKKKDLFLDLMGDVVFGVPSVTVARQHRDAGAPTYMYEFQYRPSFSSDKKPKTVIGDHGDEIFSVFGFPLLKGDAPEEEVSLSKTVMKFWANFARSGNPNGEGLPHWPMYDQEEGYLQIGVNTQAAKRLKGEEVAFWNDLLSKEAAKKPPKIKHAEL
Description: Inhibition of porcine liver carboxylesterase using [14C]GS-7340 substrate.

For assay [3], the target named is T2, Lysosomal protective protein (Homo sapiens, UniProt P10619).
T2 sequence (P10619 whole entry): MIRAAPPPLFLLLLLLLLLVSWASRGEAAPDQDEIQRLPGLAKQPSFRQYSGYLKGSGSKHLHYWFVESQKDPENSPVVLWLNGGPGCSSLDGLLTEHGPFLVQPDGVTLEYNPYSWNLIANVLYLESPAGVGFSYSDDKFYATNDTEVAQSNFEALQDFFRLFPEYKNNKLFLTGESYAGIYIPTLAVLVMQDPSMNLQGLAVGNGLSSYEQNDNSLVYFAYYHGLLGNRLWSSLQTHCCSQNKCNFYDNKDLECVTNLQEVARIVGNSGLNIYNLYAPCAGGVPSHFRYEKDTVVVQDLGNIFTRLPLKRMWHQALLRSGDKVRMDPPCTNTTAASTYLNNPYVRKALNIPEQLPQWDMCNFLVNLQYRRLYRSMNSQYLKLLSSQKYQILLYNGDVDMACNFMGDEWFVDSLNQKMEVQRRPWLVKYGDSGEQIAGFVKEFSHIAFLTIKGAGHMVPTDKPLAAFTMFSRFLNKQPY
Put plainly: Inhibition of recombinant CatA using [14C]GS-7340 substrate.

Another assay has as its target T3, Neutrophil elastase (Homo sapiens, UniProt P08246).
T3 sequence (P08246 whole entry): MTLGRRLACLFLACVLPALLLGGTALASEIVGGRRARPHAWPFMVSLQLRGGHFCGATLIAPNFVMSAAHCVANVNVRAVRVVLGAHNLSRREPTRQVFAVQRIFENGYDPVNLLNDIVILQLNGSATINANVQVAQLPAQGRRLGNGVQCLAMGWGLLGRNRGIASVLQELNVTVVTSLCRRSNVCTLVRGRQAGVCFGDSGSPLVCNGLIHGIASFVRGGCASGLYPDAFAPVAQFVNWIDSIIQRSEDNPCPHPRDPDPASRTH
Put plainly: Inhibition of human leukocyte elastase using [14C]GS7340 substrate.

Two molecules from ChEMBL document CHEMBL1142204, “Cathepsin A is the major hydrolase catalyzing the intracellular hydrolysis of the antiretroviral nucleotide phosphonoamidate prodrugs GS-7340 and GS-9131” (Antimicrob Agents Chemother, 2007) can be followed below.

As usually defined, the IC50 is the concentration that inhibits the measured activity by half.

Regarding `O=c1oc(Cl)c(Cl)c2ccccc12`, the IC50 in assay [1] was 5 µM; in assay [2] it was 0.5 µM; against Liver carboxylesterase it was > 250 µM; in assay [3], 0.6 µM.

Regarding `CC(C)C[C@H](NC(=O)[C@H]1O[C@@H]1C(=O)O)C(=O)NCCCCN=C(N)N` [E-64], the IC50 (in assay [1]; in assay [2]; at Neutrophil elastase; against Liver carboxylesterase; in assay [3]) was > 300 µM throughout.
